Measurements: paper PMC10489644, “In Vitro Evaluation of the Potential for Drug Interactions by Salidroside” (Nutrients, 2023)
Read-outs that look alike come from different tables or passages of the source.

How the values were obtained:
CYP3A4/5 = experiment: CYP direct inhibition in human liver microsomes; details: pooled human liver microsomes
CYP1A2 [1] = experiment: in vitro
Procedure: (§1) The sandwich medium was removed, and the hepatocytes were treated with incubation solutions containing salidroside (1, 5, 10, and 30 µM), vehicle (0.1% DMSO), or positive inducers in triplicate for 24 h after the cultures were established. The incubation solution was aspirated and replaced with incubation solution containing the same concentrations of salidroside, vehicle, or positive inducers for an additional 24 h. The total treatment period was 48 h. After the treatment period of 48 h, the incubation solution was aspirated. Hepatocytes were washed twice with pre-warmed HBSS containing 10 mM HEPES (HBSS I) and then the remaining solution was aspirated. Hepatocytes were washed once with pre-warmed HBSS I and incubated with 140 μL of RLT (lysis buffer from RNeasy 96 Kit) supplemented with 1% β-mercaptoethanol. Plates were then stored at −70 °C in a freezer until RNA analysis. Before RNA extraction, the frozen plate was thawed, and cell lysates were transferred to 96-well plates. RNA isolation was performed using a QIAcube RNA extraction system. Reverse transcription was performed to obtain cDNA. Quantification of the selective genes by real-time quantitative polymerase chain reaction (qPCR) was performed with TaqMan universal PCR Master Mix on the Bio-rad CFX384 TouchTM Real-Time PCR System. The relative change in the mRNA level of the selected target genes induced by each test compound was expressed in relation to the vehicle control sample, and fold changes in gene expression were determined by the ΔΔCt method.
(§2) Enzyme activity (%) = PAR with compound/PAR vehicle × 100.

CYP1A2 [2] = experiment: in vitro; details: CYP1A2 mRNA, 50 μM, 48 h; for fold induction at 48 h, 50 µM: human, cryopreserved human hepatocytes (sandwich culture), Mean Fold Induction
Procedure: as §1, with “The” for “The sandwich medium was removed, and the hepatocytes were treated with incubation solutions containing salidroside (1, 5, 10, and 30 µM), vehicle (0.1% DMSO), or positive inducers in triplicate for 24 h after the cultures were established. The”

CYP2B6 [3] = experiment: CYP induction by enzyme activity in cryopreserved human hepatocytes (Lot# SNP)
Procedure: as §1, §2

CYP2B6 [4] = experiment: in vitro; details: CYP2B6 mRNA, 1000 µM, 48 h; for fold induction at 48 h, 1000 µM: human, Mean Fold Induction
Procedure: as §1

OATP1B3 = molecular target: T1, OATP1B3 (Homo sapiens, UniProt Q9NPD5); experiment: in vitro; details: human
T1 sequence (Q9NPD5 1-702): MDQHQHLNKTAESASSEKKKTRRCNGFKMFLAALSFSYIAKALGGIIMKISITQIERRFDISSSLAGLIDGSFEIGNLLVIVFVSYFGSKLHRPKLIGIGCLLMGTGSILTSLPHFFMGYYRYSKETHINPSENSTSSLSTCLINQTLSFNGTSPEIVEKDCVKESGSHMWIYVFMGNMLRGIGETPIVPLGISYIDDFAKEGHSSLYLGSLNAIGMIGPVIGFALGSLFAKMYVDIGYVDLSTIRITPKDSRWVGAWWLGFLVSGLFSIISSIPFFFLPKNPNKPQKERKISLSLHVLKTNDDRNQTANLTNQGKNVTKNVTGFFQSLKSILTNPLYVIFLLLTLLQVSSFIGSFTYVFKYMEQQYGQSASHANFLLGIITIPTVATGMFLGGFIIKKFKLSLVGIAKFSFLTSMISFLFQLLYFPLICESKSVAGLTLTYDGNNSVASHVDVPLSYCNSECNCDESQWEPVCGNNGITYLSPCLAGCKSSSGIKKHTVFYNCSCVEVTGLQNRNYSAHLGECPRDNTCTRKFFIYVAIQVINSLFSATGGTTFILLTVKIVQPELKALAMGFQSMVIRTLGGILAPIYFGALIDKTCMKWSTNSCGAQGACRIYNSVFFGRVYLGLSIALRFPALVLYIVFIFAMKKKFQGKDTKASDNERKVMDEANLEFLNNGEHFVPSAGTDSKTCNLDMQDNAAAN
Procedure: HEK293-OATP1B1 and OATP1B3 cells were diluted to 1 × 10^6 cells/mL with DMEM supplemented with 1% non-essential amino acid (NEAA), 10% fetal bovine serum (FBS), 1% PS solution (100 U/mL penicillin-G and 100 μg/mL streptomycin), and seeded on a 96-well BioCoat™ poly-d-lysine plate at a density of 1 × 10^6 cells/mL. […] Once the cells were anchored on the plate, the cell culture was replaced with DMEM containing 10% FBS and 1% PS solution (100 U/mL penicillin-G and 100 μg/mL streptomycin solution) and cultured one day for the uptake and inhibition studies. The cell culture medium was removed from the 96-well plate, then rinsed twice with 0.1 mL/well of pre-warmed transport buffer. The transporter cells containing pre-incubation solution were pre-incubated at 37 °C for 30 min. Then the pre-incubation solution was removed and replaced with 0.1 mL/well of dosing solution containing a substrate, respectively (blank transporter buffer containing a substrate, transport buffer containing a substrate and PC, and transport buffer containing a substrate and salidroside). Then, the transporter cells were incubated at 37 °C for 2 min. After incubation, all solutions in the cells were discarded and rinsed with 0.10 mL/well of ice-cold transport buffer (4 °C) three times. […] All samples were shaken and centrifuged at 4000 rpm at 4 °C for 15 min and the supernatant was removed for future analysis by LC-MS/MS.
as §2

recombinant human MAO-B = molecular target: T2, recombinant human MAO-B (Homo sapiens, UniProt P27338); experiment: MAO inhibition, kynuramine oxidation to 4-hydroxyquinoline; type: biochemical; details: substrate kynuramine (20 µM); mean of N = 2
T2 construct: purchased Corning
T2 sequence (P27338 1-520): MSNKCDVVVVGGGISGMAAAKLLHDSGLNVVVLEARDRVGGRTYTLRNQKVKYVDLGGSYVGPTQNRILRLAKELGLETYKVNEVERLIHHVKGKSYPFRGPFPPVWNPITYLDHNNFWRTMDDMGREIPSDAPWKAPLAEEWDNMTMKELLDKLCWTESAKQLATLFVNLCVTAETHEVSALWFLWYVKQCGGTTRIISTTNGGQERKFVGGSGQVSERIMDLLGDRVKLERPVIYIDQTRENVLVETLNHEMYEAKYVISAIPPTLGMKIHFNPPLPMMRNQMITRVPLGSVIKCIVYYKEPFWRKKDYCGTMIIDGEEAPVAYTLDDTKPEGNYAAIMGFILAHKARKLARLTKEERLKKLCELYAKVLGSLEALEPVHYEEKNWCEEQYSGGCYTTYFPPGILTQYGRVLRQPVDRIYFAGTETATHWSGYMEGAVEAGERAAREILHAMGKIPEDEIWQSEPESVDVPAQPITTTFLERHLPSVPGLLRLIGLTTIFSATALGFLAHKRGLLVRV
Procedure: (§3) A total of 99 µL of substrate working solution was added into 1.1 mL incubation tubes and then 1 µL of the test compound/control working solution or DMSO (vehicle control) was added, mixed well, and pre-incubated at 37 °C for 5 min. MAO-A (0.005 mg/mL) and MAO-B (0.02 mg/mL) were pre-incubated in the working solution at 37 °C for 5 min. A total of 100 µL of pre-incubated MAO-A or MAO-B working solution was added to incubation tubes to start the reaction, mixed well, and incubated at 37 °C for 15 min. […] All samples were centrifuged at 4000 rpm at 4 °C for 15 min, then 100 µL supernatant with 100 µL of water was transferred for LC-MS/MS analysis.
as §2
(§4) The oxidation of kynuramine to 4-hydroxyquinoline generated was the in vitro marker reaction of MAO-A and MAO-B enzymes.

recombinant human MAO-A = molecular target: T3, recombinant human MAO-A (Homo sapiens, UniProt P21397); experiment: as above; type: biochemical; details: substrate kynuramine (20 µM); mean of N = 2; read-out: IC50 MAO-A
T3 sequence (P21397 1-527): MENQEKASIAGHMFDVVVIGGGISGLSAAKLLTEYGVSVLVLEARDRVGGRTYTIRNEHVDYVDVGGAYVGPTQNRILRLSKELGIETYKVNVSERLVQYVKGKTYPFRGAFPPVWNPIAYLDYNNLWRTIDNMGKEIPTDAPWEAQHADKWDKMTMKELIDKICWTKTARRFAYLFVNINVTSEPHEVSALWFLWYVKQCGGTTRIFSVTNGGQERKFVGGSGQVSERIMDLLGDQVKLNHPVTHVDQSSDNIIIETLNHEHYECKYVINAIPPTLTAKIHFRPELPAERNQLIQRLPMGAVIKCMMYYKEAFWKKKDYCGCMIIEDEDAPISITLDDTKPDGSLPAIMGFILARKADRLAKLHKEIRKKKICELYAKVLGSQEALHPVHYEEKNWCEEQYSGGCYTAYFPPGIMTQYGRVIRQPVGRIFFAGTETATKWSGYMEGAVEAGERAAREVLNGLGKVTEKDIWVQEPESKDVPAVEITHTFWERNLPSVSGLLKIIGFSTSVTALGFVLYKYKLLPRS
Procedure: as §3, §2, §4

MAO-B = system: MAO-B; design: method as in PMID 19168123; details: isolated compound at 10 µM; cited from earlier work

Work on CC(=O)N1CCN(c2ccc(OCC3COC(Cn4ccnc4)(c4ccc(Cl)cc4Cl)O3)cc2)CC1 (stereo not shown) [Ketoconazole, ketoconazole] yielded an IC50 at 10 min (CYP3A4/5; probe midazolam) of 27 nM and an IC50 at 10 min (CYP3A4/5; probe testosterone) of 18.3 nM.

With COc1ccc2[nH]c([S+]([O-])Cc3ncc(C)c(OC)c3C)nc2c1 (stereo not shown) [OME, omeprazole, reference compound] the fold induction at 48 h, 50 µM (CYP1A2 [1]) was 3.55, the “% of Positive Control” value (CYP1A2 [1]; CYP1A2 activity, Lot# SNP, 50 µM) was 100% and the “% Positive Control” value (CYP1A2 [2]; Lot# 1911442) was 100%. The “% Positive Control” value (CYP1A2 [2]; Lot# MWB) was 100%, the “% Positive Control” value (CYP1A2 [2]; Lot# RFM) was 100% and the fold induction at 48 h, 50 µM (CYP1A2 [2]; Lot# 1911442) was 10. The fold induction at 48 h, 50 µM (CYP1A2 [2]; Lot# MWB) was 24 and the fold induction at 48 h, 50 µM (CYP1A2 [2]; Lot# RFM) was 19.

For CCC1(c2ccccc2)C(=O)NC(=O)NC1=O [PB, phenobarbital, reference compound], the “% of Positive Control” value (CYP2B6 [3]; CYP2B6 activity, Lot# SNP, 1000 µM) was 100%, the fold induction at 48 h, 1000 µM (CYP2B6 [3]; human) was 5.69 and the “% Positive Control” value (CYP2B6 [4]; Lot# 1911442) was 100%. The “% Positive Control” value (CYP2B6 [4]; Lot# MWB) was 100%, the “% Positive Control” value (CYP2B6 [4]; Lot# RFM) was 100% and the fold induction at 48 h, 1000 µM (CYP2B6 [4]; Lot# 1911442) was 13.6. For the same molecule, the fold induction at 48 h, 1000 µM (CYP2B6 [4]; Lot# MWB) was 14.7 and the fold induction at 48 h, 1000 µM (CYP2B6 [4]; Lot# RFM) was 8.81.

With CO[C@H]1/C=C/O[C@@]2(C)Oc3c(C)c(O)c4c(O)c(c(/C=N/N5CCN(C)CC5)c(O)c4c3C2=O)NC(=O)/C(C)=C\C=C\[C@H](C)[C@H](O)[C@@H](C)[C@@H](O)[C@@H](C)[C@H](OC(C)=O)[C@@H]1C [RIF, rifampicin, reference compound] the IC50 at 2 min (OATP1B3) was 1540 nM.

With Cc1oncc1C(=O)Nc1ccc(C(F)(F)F)cc1 [leflunomide, reference compound] the IC50 (recombinant human MAO-B) was 7400 nM and the IC50 (recombinant human MAO-A) was 13800 nM.

For CC(C)=CC[C@H](O)/C(C)=C/CO[C@@H]1O[C@H](CO)[C@@H](O)[C@H](O)[C@H]1O [rosirdin, reference compound], the “inhibition of MAO-B” value (MAO-B) is listed as 83.8%.
